These results are taken from PMC9658513, “Discovery of Compounds That Selectively Repress the Amyloidogenic Processing of the Amyloid Precursor Protein: Design, Synthesis and Pharmacological Evaluation of Diphenylpyrazoles” (International Journal of Molecular Sciences, 2022).

Broadly, the fold induction is the signal under treatment as a multiple of the control signal.

The subject of one assay is LC3. Nature of the assay: Autophagic flux: LC3-I lipidation into LC3-II by Western blot. It counts as cell-based. Particulars: Homo sapiens, 24 h, compound at 3 µM, SY5Y-APP^wt cells, vs control. The source says:
(§1) Previous work dedicated to compounds of family C [22] has underlined the effect of our compounds on autophagic flux and the lysosomal degradation pathways. More precisely, the role of the amino side chains and their number was highlighted. Therefore, we assessed whether the activity of compounds involved the modulation of lysosomal activities toward the accumulation of APP-CTFs and AICD. Thus, we studied the effect of a selection of compounds on the autophagic flux, more particularly, we evaluated the effect of compounds 24, 33, 34, 57, 65, 67, 70, and 71 on two markers associated with autophagy: p62 and LC3-I lipidation into LC3-II. To the previous selection of efficient compounds decreasing Aβ1–x production and increasing CTFα and AICD, we added compound 65 with no cytotoxicity at 100 µM. As a comparison, we also selected compound 57 with a hydroxymethyl substituent as a control. In addition to CQ, bafilomycin A, a well-known inhibitor of autophagic flux, was used as a control. Treatment with compounds 67 and 71 induced an increase in p62 expression by 2.5 and 4-fold, respectively, compared to the control condition (Figure 3). […] An increase in the two markers was also observed with compound 57, but to a smaller extent (1.7-fold for p62 and 2-fold for LC3-I/LC3-II).
(§2) The human neuroblastoma cell line SY5Y-APP^695WT was maintained in Dulbecco’s modified Eagle medium (DMEM, high glucose, pyruvate—GIBCO, Life Technologies, Carlsbad, CA, USA) supplemented with 10% fetal bovine serum, 2 mM L-glutamine, 1 mM non-essential amino acids and penicillin/streptomycin (GIBCO, Life Technologies, Carlsbad, CA, USA) at 37 °C in a 5% CO2 humidified incubator [36]. For compound treatment, a 10 mM stock solution was diluted in freshly supplemented DMEM medium to obtain the precise final concentration of the drug. Cells were plated at a density of 5 × 10^5 cells per well into 12-well plates and cultured with 1 mL supplemented DMEM cell medium for 24 h before compound exposure. The following day, the cell medium was replaced with fresh medium containing the compounds diluted at the indicated concentrations. Cells were treated for 24 h. At the end of the treatments, the cell medium was collected and kept at −80 °C until use, cells were rinsed once with PBS and extracted in 100 µL of Laemmli buffer (10 mM Tris, 20% glycerol, and 2% sodium dodecyl sulfate) using a cell-scraper. The cell lysate was further sonicated (30 pulses of 0.5 s, 60 Hz) for 5 min. Total protein concentration was determined using the Pierce BCA Protein Assay Kit (Thermo Scientific, Waltham, MA, USA) according to the manufacturer’s instructions. Samples were stored at −80 °C until analysis.
(§3) Cell protein lysates were prepared for Western blot analysis by diluting the sample with 1 volume of NuPAGE® lithium dodecyl sulfate (LDS) 2X sample buffer supplemented with 20% NuPAGE® sample reducing agents (Invitrogen). Samples were heated for 10 min at 100 °C. Ten µg of total proteins per well were loaded onto precast 4–12% Criterion XT Bis-Tris polyacrylamide gels (Bio-Rad) and electrophoresis was achieved after applying a tension of 150 V for 90 min using a Criterion electrophoresis cell with the NuPAGE® MOPS SDS running buffer (1X). Proteins were transferred to a nitrocellulose membrane of […] pore size (G&E Healthcare, Madison, WI, USA) using the Criterion blotting system and applying a tension of 100 V for 45 min. To resolve proteins of low molecular weights such as carboxy-terminal fragments of APP, 12% Criterion XT Bis-Tris polyacrylamide gels (Bio-Rad, Hercules, CA, USA) were used, and electrophoresis was performed for 70 min at 150 V in a NuPAGE® MES SDS running buffer (1X). Proteins were transferred to a nitrocellulose membrane of 0.2 µm pore size (G&E Healthcare, Madison, WI, USA) at 100 V for 40 min. Molecular weight calibration was achieved using molecular weight markers (Novex and Magic Marks, Life Technologies, Carlsbad, CA, USA). […]

The subject of a further assay is p62. Nature of the assay: Autophagic flux: p62 expression by Western blot. Particulars: 24 h, compound at 3 µM, SY5Y-APP^wt cells, vs control; for fold induction at 3 µM: Homo sapiens. It counts as cell-based, human.
From the text: as §1, §2, §3
(Immunoblotting shows a protein as a band on a membrane.)

A further assay deals with p62/LC3. Nature of the assay: Ratio between p62 and LC3 expression levels. It counts as cell-based, human. Particulars: compound at 3 µM, 24 h, SY5Y-APP^wt cells. The source says:
Compounds from both series were selected to first determine the potential relationship between the repression of Aβ1–x production and the increased expression of LC3 and p62. […] We then also considered the ratio between the p62 and LC3 expression levels.
Figure 3 Effect of compounds 24, 33, 34, 57, 65, 67, 70, and 71 on the autophagic flux in SY5Y-APP^wt cells. […] Cell lysates were immunolabeled with the following antibodies: p62 (a), LC3 (b), and β-actin. Statistical significance was set at * p < 0.05, ** p < […], *[…], **** p < 0.0001, and ns as not significant.

As for `CN(C)CCCc1ccc(-c2nn(-c3ccc(CN(C)C)cc3)cc2CN(C)C)cc1` [Compound 24, 3-[4-[4-(Dimethylaminomethyl)-1-[4-(dimethylaminomethyl)phenyl] Pyrazol-3-yl]phenyl]-N,N-dimethyl-propan-1-amine], the figures for the fold induction at 3 µM in the assay on LC3 and in the assay with p62 were 3.3 and 1.64, respectively. For the same molecule, in the assay on p62/LC3, the p62/LC3 turned out to be 0.49.
The corresponding values for `Cc1cn(-c2cccc(CO)c2)nc1-c1ccc(CN(C)CCCN(C)C)cc1` [Compound 57, (3-{3-[4-({[3-(Dimethylamino)propyl](methyl)amino}methyl)phenyl]-4-methyl-1H-pyrazol-1-yl}phenyl)methanol] are 2, 1.7 and 0.71.
The corresponding values for `Cc1cn(-c2cccc(CN3CCN(C)CC3)c2)nc1-c1cccc(CN(C)C)c1` [Compound 65, N,N-dimethyl-1-[3-[4-methyl-1-[3-[(4-methylpiperazin-1-yl)methyl]phenyl]pyrazol-3-yl]phenyl]methanamine] are 2.63, 1.64 and 0.63.
In the same order, the values of `Cc1cn(-c2cccc(CN(C)C)c2)nc1-c1ccc(CN(C)CCCN(C)C)cc1` [Compound 67, {[4-(1-{3-[(Dimethylamino)methyl]phenyl}-4-methyl-1H-pyrazol-3-yl)phenyl]methyl} [3-(Dimethylamino)propyl]methylamine] are 5.2, 2.5 and 0.51.
As for `Cc1cn(-c2cccc(CN(C)C)c2)nc1-c1cccc(CN(C)CCCN(C)C)c1` [Compound 70, N′-[[3-[1-[3-(Dimethylaminomethyl)phenyl]-4-methyl-pyrazol-3-yl]phenyl] Methyl]-N,N,N′-trimethyl-propane-1,3-diamine], the fold induction at 3 µM with LC3 was 6; with p62 it was 3. The p62/LC3 with p62/LC3 is recorded as 0.30.
On to `Cc1cn(-c2cccc(CN3CCN(C)CC3)c2)nc1-c1cccc(CN(C)CCCN(C)C)c1` [Compound 71, N,N,N′-Trimethyl-N′-[[3-[4-methyl-1-[3-[(4-methylpiperazin-1-yl)methyl]phenyl]pyrazol-3-yl]phenyl]methyl]propane-1,3-diamine], for which the fold induction at 3 µM in the assay with LC3 is 6.5; in the assay with p62, 4. For the same molecule, the p62/LC3 with p62/LC3 stood at 0.34.
For “N′-[[4-[4-[3-(Dimethylamino)propyl]-3-[4-[3-(dimethylamino)propyl]phenyl] Pyrazol-1-yl]phenyl]methyl]-N,N,N′-trimethyl-propane-1,3-diamine [Compound 33]”, the p62 in the assay on p62 was 1.04 Fold-change. The p62/LC3 in the assay with p62/LC3 came out at 0.98.
